Strand notation (5' to 3'): a small letter for the sugar, then the base; units joined by * are phosphorothioate-linked, units joined directly phosphodiester-linked; [ ] holds rarer units or linkages, { } end groups; capitals alone tell only the bases. e = 2'-O-(2-methoxyethyl) (MOE); k = constrained ethyl (cEt); [5mC] = 5-methylcytosine; d = 2'-deoxy (DNA)
System: human PKK mRNA
Experiment: Antisense inhibition of human PKK mRNA in HepaRG cells, 1,000 nM, MOE/deoxy/cEt oligonucleotides (Example 3)
Type: cell-based
Summary of the method: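 HepaRG cells at 20,000 per well electroporated with 1,000 nM 16-mer MOE/cEt/deoxy gapmers (phosphorothioate, 5-methylcytosine). After about 24 h, PKK mRNA measured by qRT-PCR with primer probe set RTS3454, normalized to RIBOGREEN total RNA. Reported as percent inhibition versus untreated cells.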

[1] = Table 19, HepaRG cells, electroporation with 1,000 nM antisense oligonucleotide, approximately 24 hours, PKK mRNA by RT-PCR (RTS3454), relative to untreated control cells
[2] = HepaRG cells, electroporation with 1,000 nM antisense oligonucleotide, approx. 24 hours, PKK mRNA by RT-PCR (RTS3454), relative to untreated control cells, Table 25 experiment
[3] = Table 27, HepaRG cells, 1,000 nM antisense oligonucleotide, human PKK mRNA
[4] = HepaRG cells, 1,000 nM antisense oligonucleotide, Table 29
[5] = HepaRG cells, electroporation with 1,000 nM antisense oligonucleotide, approx. 24 hours, PKK mRNA by RT-PCR (RTS3454), relative to untreated control cells, Table 26 experiment
[6] = PKK mRNA, HepaRG cells, 1,000 nM antisense oligonucleotide, Table 31
[7] = HepaRG cells, electroporation with 1,000 nM antisense oligonucleotide, approximately 24 hours, primer probe set RTS3454, relative to untreated control cells, experiment of Table 24
[8] = Table 21 experiment, HepaRG cells, electroporation with 1,000 nM antisense oligonucleotide, approx. 24 hours, PKK mRNA by RT-PCR (RTS3454), relative to untreated control cells
[9] = Table 30, human PKK mRNA, HepaRG cells, 1,000 nM antisense oligonucleotide
[10] = Table 20, HepaRG cells, electroporation with 1,000 nM antisense oligonucleotide, approximately 24 hours, PKK mRNA by RT-PCR (RTS3454), relative to untreated control cells
[11] = Table 22 experiment, HepaRG cells, electroporation with 1,000 nM antisense oligonucleotide, approx. 24 hours, PKK mRNA by RT-PCR (RTS3454), relative to untreated control cells
[12] = Table 28, HepaRG cells, 1,000 nM antisense oligonucleotide, human PKK mRNA
[13] = HepaRG cells, electroporation with 1,000 nM antisense oligonucleotide, approximately 24 hours, primer probe set RTS3454, relative to untreated control cells, experiment of Table 23

548107 (antisense eT*e[5mC]*k[5mC]*dA*dT*dG*dT*dA*d[5mC]*dT*d[5mC]*dA*dG*k[5mC]*kG*eA) [compound 548107]
% inhibition [1]: 76%

548101 (antisense eT*eA*k[5mC]*dT*d[5mC]*dA*dG*d[5mC]*dG*dA*d[5mC]*dT*dT*kT*kG*eG) [compound 548101]
% inhibition [1]: 47%

548213 (eG*eA*k[5mC]*dA*dG*d[5mC]*d[5mC]*d[5mC]*dA*d[5mC]*d[5mC]*dA*dA*k[5mC]*kA*eA; antisense) [compound 548213]
% inhibition [2]: 70%

548315 (eG*eT*kT*dG*dT*d[5mC]*dA*dA*d[5mC]*dT*dG*dG*dG*kA*k[5mC]*e[5mC]; antisense) [compound 548315]
% inhibition [3]: 14%

548556 (antisense eA*eT*kG*d[5mC]*dA*dT*dG*d[5mC]*d[5mC]*dT*dA*d[5mC]*d[5mC]*k[5mC]*kA*eA) [compound 548556]
% inhibition [4]: 43%

548567 (antisense eA*eG*kA*dT*d[5mC]*d[5mC]*dG*dG*dA*dA*dT*dA*dA*k[5mC]*k[5mC]*eA) [compound 548567]
% inhibition [4]: 67%

548240 (eA*eT*kA*d[5mC]*dT*d[5mC]*dG*d[5mC]*d[5mC]*dT*dT*dT*dG*kT*kG*eA; antisense) [compound 548240]
% inhibition [5]: 3%

548618 (antisense eG*eT*kT*dG*dG*dT*dG*dG*d[5mC]*dG*dG*dG*dA*kT*k[5mC]*eG) [compound 548618]
% inhibition [6]: 18%

548059 (eT*eA*kG*dG*d[5mC]*dA*dT*dA*dT*dT*dG*dG*dT*kT*kT*eT; antisense) [compound 548059]
% inhibition [7]: 50%

547810 (e[5mC]*e[5mC]*kT*d[5mC]*dA*dT*d[5mC]*dT*dG*dG*d[5mC]*dA*dG*kT*kA*eT; antisense) [compound 547810]
% inhibition [8]: 60%

548288 (eG*eA*kA*dT*dA*dG*d[5mC]*dA*dA*dG*d[5mC]*dT*d[5mC]*k[5mC]*kA*eA; antisense) [compound 548288]
% inhibition [5]: 64%

548206 (eG*eG*kT*d[5mC]*dA*dA*dT*d[5mC]*dT*dG*dA*d[5mC]*dT*kA*kG*eT; antisense) [compound 548206]
% inhibition [2]: 45%

548448 (eT*e[5mC]*kA*d[5mC]*dT*dG*dT*d[5mC]*d[5mC]*dT*dA*dT*dG*kT*k[5mC]*eA; antisense) [compound 548448]
% inhibition [9]: 61%

548142 (eA*e[5mC]*kT*d[5mC]*dT*d[5mC]*d[5mC]*dA*dT*dG*d[5mC]*dT*dT*kT*kG*e[5mC]; antisense) [compound 548142]
% inhibition [1]: 44%

548665 (antisense eG*e[5mC]*kT*d[5mC]*d[5mC]*d[5mC]*dG*dG*d[5mC]*d[5mC]*dA*dT*dT*kA*kG*e[5mC]) [compound 548665]
% inhibition [6]: 8%

548670 (antisense eG*eA*kA*dA*dA*dG*d[5mC]*d[5mC]*d[5mC]*dT*d[5mC]*d[5mC]*dG*kA*kG*e[5mC]) [compound 548670]
% inhibition [6]: 15%

548136 (eG*eG*k[5mC]*dT*d[5mC]*dA*dG*dA*dA*dT*dT*dT*dG*kA*k[5mC]*eT; antisense) [compound 548136]
% inhibition [1]: 39%

547848 (antisense eA*eT*kG*dT*d[5mC]*dT*d[5mC]*dG*dA*dT*dG*dG*d[5mC]*kA*kA*eG) [compound 547848]
% inhibition [10]: 93% | % inhibition [11]: 79%

547853 (antisense eT*eA*kT*dA*dA*dA*dT*dG*dT*d[5mC]*dT*d[5mC]*dG*kA*kT*eG) [compound 547853]
% inhibition [10]: 0% | % inhibition [11]: 30%

548493 (antisense e[5mC]*e[5mC]*kA*d[5mC]*d[5mC]*dG*d[5mC]*dT*dG*d[5mC]*d[5mC]*d[5mC]*dG*k[5mC]*k[5mC]*eA) [compound 548493]
% inhibition [12]: 37%

548551 (antisense e[5mC]*eG*kG*d[5mC]*d[5mC]*dA*dA*dT*dG*dG*dG*dA*dA*kA*kG*eG) [compound 548551]
% inhibition [4]: 25%

548370 (eA*e[5mC]*kG*dA*dA*dG*dT*d[5mC]*dT*d[5mC]*dT*dT*dT*k[5mC]*k[5mC]*eT; antisense) [compound 548370]
% inhibition [3]: 53%

547894 (eG*eG*k[5mC]*dA*dA*dT*dT*dG*dT*dT*d[5mC]*d[5mC]*dG*kG*kT*eA; antisense) [compound 547894]
% inhibition [10]: 92% | % inhibition [11]: 91%

548071 (eA*eG*kA*dA*dG*d[5mC]*d[5mC]*d[5mC]*d[5mC]*dA*dT*d[5mC]*d[5mC]*kG*kG*eT; antisense) [compound 548071]
% inhibition [7]: 55%

548137 (eA*eG*kG*d[5mC]*dT*d[5mC]*dA*dG*dA*dA*dT*dT*dT*kG*kA*e[5mC]; antisense) [compound 548137]
% inhibition [1]: 62%

547891 (eA*eT*kT*dG*dT*dT*d[5mC]*d[5mC]*dG*dG*dT*dA*d[5mC]*kT*k[5mC]*eT; antisense) [compound 547891]
% inhibition [10]: 84% | % inhibition [11]: 88%

548596 (eA*eT*kG*dG*d[5mC]*dG*dG*dT*dG*dA*dA*dG*d[5mC]*kA*kG*e[5mC]; antisense) [compound 548596]
% inhibition [4]: 20%

547960 (eT*eG*k[5mC]*dA*dG*dG*dT*dT*dA*dA*dA*dA*dG*kG*k[5mC]*eT; antisense) [compound 547960]
% inhibition [13]: 40%

548627 (antisense e[5mC]*e[5mC]*k[5mC]*dA*d[5mC]*dA*dT*dG*dT*dA*d[5mC]*d[5mC]*dA*k[5mC]*k[5mC]*eG) [compound 548627]
% inhibition [6]: 22%

547956 (eG*eT*kT*dA*dA*dA*dA*dG*dG*d[5mC]*dT*dA*dT*kA*kT*e[5mC]; antisense) [compound 547956]
% inhibition [13]: 13%

547753 (eA*eT*kG*dA*dA*d[5mC]*dG*dG*dT*d[5mC]*dT*dT*d[5mC]*kA*kA*eG; antisense) [compound 547753]
% inhibition [8]: 3%

548067 (e[5mC]*eA*kG*dT*dT*dG*dG*dT*dA*dT*dA*dA*dA*kT*kT*eG; antisense) [compound 548067]
% inhibition [7]: 18%

548552 (antisense eT*eG*kG*dA*dG*dG*dA*dG*dT*dA*dG*dG*dG*kA*kA*eT) [compound 548552]
% inhibition [4]: 10%

547885 (e[5mC]*eT*k[5mC]*dT*dG*d[5mC]*d[5mC]*dT*dT*dG*dT*dG*dA*kA*kA*eT; antisense) [compound 547885]
% inhibition [10]: 45% | % inhibition [11]: 57%

548507 (antisense eA*eA*kA*d[5mC]*dT*d[5mC]*d[5mC]*dT*d[5mC]*dT*d[5mC]*dA*dA*kG*kG*e[5mC]) [compound 548507]
% inhibition [12]: 53%

548634 (antisense eG*e[5mC]*k[5mC]*dT*dT*dA*dT*dT*d[5mC]*dT*dG*dT*dG*k[5mC]*kA*eA) [compound 548634]
% inhibition [6]: 0%

547910 (eA*e[5mC]*k[5mC]*dA*dA*dT*dT*dT*d[5mC]*dT*dG*dA*dA*kA*kG*eG; antisense) [compound 547910]
% inhibition [10]: 26% | % inhibition [11]: 34%

548595 (eG*eG*kA*dT*dG*dA*dG*dA*dT*dG*d[5mC]*dA*dT*k[5mC]*k[5mC]*eA; antisense) [compound 548595]
% inhibition [4]: 8%

548158 (eG*e[5mC]*kA*dT*dT*dG*dT*d[5mC]*dA*dG*d[5mC]*d[5mC]*d[5mC]*k[5mC]*kT*eG; antisense) [compound 548158]
% inhibition [2]: 18%

548239 (eT*eA*k[5mC]*dT*d[5mC]*dG*d[5mC]*d[5mC]*dT*dT*dT*dG*dT*kG*kA*e[5mC]; antisense) [compound 548239]
% inhibition [5]: 18%

548408 (antisense eT*eA*kT*d[5mC]*dA*d[5mC]*dT*dG*dT*dA*d[5mC]*dT*dA*kG*kT*eT) [compound 548408]
% inhibition [9]: 47%

548496 (antisense eA*e[5mC]*kT*dG*dA*dA*d[5mC]*d[5mC]*d[5mC]*d[5mC]*d[5mC]*dT*dT*kA*kG*eG) [compound 548496]
% inhibition [12]: 0%

548610 (antisense eG*eG*kA*dT*d[5mC]*dG*dG*dT*dG*dG*dT*dG*dG*kG*kA*eT) [compound 548610]
% inhibition [4]: 2%

548143 (e[5mC]*eA*k[5mC]*dT*d[5mC]*dT*d[5mC]*d[5mC]*dA*dT*dG*d[5mC]*dT*kT*kT*eG; antisense) [compound 548143]
% inhibition [1]: 39%

548160 (eT*e[5mC]*kG*d[5mC]*dA*dT*dT*dG*dT*d[5mC]*dA*dG*d[5mC]*k[5mC]*k[5mC]*e[5mC]; antisense) [compound 548160]
% inhibition [2]: 60%

547802 (eG*eT*kA*d[5mC]*dA*dT*dG*dG*dA*dA*dG*d[5mC]*dT*kA*k[5mC]*eA; antisense) [compound 547802]
% inhibition [8]: 41%

547874 (antisense eA*e[5mC]*kT*dG*d[5mC]*dT*dA*dA*d[5mC]*d[5mC]*dT*dT*dA*kG*kA*e[5mC]) [compound 547874]
% inhibition [10]: 70% | % inhibition [11]: 60%
